# According to US10329518B2, “Anionic surfactants” (Novus International Inc., priority 2015, dated 2019):
# Where two headings read alike, the source gives them in different places.
# How the values were obtained:
# [1] = Water solubility assessed visually at room temperature; assay type: physicochemical; details: in water, visual assessment
# Protocol: Dowex MAC-3 resin (proton form) was swollen and neutralized with excess NaOH/water solution, and then assembled into a column. After the resin was balanced with 2 column volumes of 30 vol % water in ethanol, 1 column volume of a 0.1 g/mL acid in 30 vol % water in ethanol solution was loaded and incubated in the column for 10 min. Subsequently, the resin was rinsed with 2 column volumes of 30 vol % water in ethanol, and the eluent was collected. The pH of the 1 wt % solutions/suspensions of the solids increased from 4 to 8 after passing through the column. The solvent was then evaporated under vacuum at mild heat (40° C.) to provide the sodium carboxylate salts. The sodium salts were fully soluble in water (deionized with 18MΩ resistivity), while the starting carboxylic acids were insoluble. The solubility of the surfactants in water was assessed visually at room temperature. The mixture at each concentration was examined after at least 10 min of mild shaking and ultrasonic bath agitation to see if the surfactant completely dissolved. […] Surface tension was determined with a Wilhelmy Plate tensiometer (Cahn DCA-322) at room temperature. Glass slides manufactured by Corning with a width of 22 mm and thickness of 0.1 mm were used as probes. The motor speed was set to be 100 μm/sec. The CMC was determined from the break point of Υvs. log C diagram with a custom Microsoft Visual Basic program.
# [2] = Hardness (calcium chloride) tolerance; assay type: physicochemical; details: for CaCl2 Tolerance / Hardness Tolerance: CaCl2 added, cooled to 4° C., heated to 25° C., visual
# Protocol: The Krafft temperature of the surfactant with the concentration at the room temperature CMC was determined by cooling the solution to 4° C. and then raising the temperature by 1° C. steps and visually inspecting its phase behavior after the solution reached thermal equilibrium. For hardness tolerance, a known amount of calcium chloride was added to the solution prior to cooling to 4° C.
# [3] = Ross-Miles foam test (ASTM D1173-07); assay type: physicochemical; details: 1 wt % solution
# Protocol: The Ross-Miles foam test was performed according to the test protocol described in ASTM D1173-07. […] 50 mL of each surfactant solution (1 wt %) was carefully poured into the 1 meter glass column, without creating any foam, which is called the receiver. A 200 mL pipette with the surfactant solution is placed 90 cm above the receiver and the solution is allowed to drop into the foam receiver. The height of the foam produced is measured immediately and after 5 minutes.
# [4] = Surface tension by Wilhelmy plate tensiometer; CMC from break point of surface tension vs. log C; assay type: physicochemical; details: room temperature
# Protocol: The solubility of the surfactants in water was assessed visually at room temperature. The mixture at each concentration was examined after at least 10 min of mild shaking and ultrasonic bath agitation to see if the surfactant completely dissolved. […] Surface tension was determined with a Wilhelmy Plate tensiometer (Cahn DCA-322) at room temperature. Glass slides manufactured by Corning with a width of 22 mm and thickness of 0.1 mm were used as probes. The motor speed was set to be 100 μm/sec. The CMC was determined from the break point of Υvs. log C diagram with a custom Microsoft Visual Basic program.
# [5] = Krafft temperature determination; assay type: physicochemical; details: within 48 hours
# Protocol: […] the solution to 4° C. and then raising the temperature by 1° C. steps and visually inspecting its phase behavior after the solution reached thermal equilibrium. For hardness tolerance, a known amount of calcium chloride was added to the solution prior to cooling to 4° C.
# [6] = Draves wetting test (ASTM D2281-68); assay type: physicochemical
# Protocol: The Draves wetting test was performed according to ASTM […]-68. 500 mL of surfactant solution was poured into a 500 mL graduated cylinder (38 cm in height), and a 5.0 g standard skein hooked with a lead anchor was dropped into the solution. The skein floats in the solution initially and sinks when wetted, and the time taken was recorded as the time of wetting.
# [7] = cited from earlier work; for CMC/C20: literature value (footnotes b, d)
# [8] = literature value (footnotes a, b); cited from earlier work
# [9] = literature value (footnote c); cited from earlier work
# [10] = literature value (footnotes a, c); cited from earlier work
Water Solubility [1],CMC [4],CMC/C20 [4],pC20 [4],ΥCMC (surface tension at CMC) [4],Precipitation of 1 wt % solution in 4° C. water bath [5],Draves wetting time of 0.1 wt % solution [6],Molecule,CaCl2 Tolerance [2],Hardness Tolerance [2],CMC/C20 [7],also measured
282 mM,1.0 mM,5.55,3.84,35 mN/m,did not show precipitation,11 s,CCCCCCCCCCCC(=O)OC(CCSC)C(=O)[O-].[Na+] (centres unmarked) [C12ESCOONa],100 µM,10 ppm as CaCO3,–,"Calcium tolerance relative to the linear carboxylate (NaL) ([2]; versus NaL): approximately 2.5 orders of magnitude; Calcium tolerance relative to the linear sulfate SDS ([2]; versus SDS): about half an order of magnitude better; Foam dissipation ([3]; foam height immediately and after 5 minutes): dissipates much faster; Foam height ([3]; versus SDS, SDBS, AES): comparable to the reference anionic surfactants; Draves wetting performance compared with references ([6]; 0.1 wt % solutions): outperformed NaL in wetting time with a comparable performance to SDS"
>1000^ mM,1.7 mM,3.15,3.27,40 mN/m,did not show precipitation,–,CCCCCCCCCCCC(=O)OC(CC[S+](C)[O-])C(=O)[O-].[Na+] (centres unmarked) [C12ESOCOONa],5000 µM,500 ppm as CaCO3,–,Hardness tolerance (of CaCl2) ([2]; text of b163): 5000 µM; Hardness tolerance relative to the unoxidized form ([2]; versus C12ESCOONa): 50 times
117 mM,0.54 mM,4.56,4.07,42 mN/m,did not show precipitation,–,CCCCCCCCCCCCCCCC(=O)OC(CC[S+](C)[O-])C(=O)[O-].[Na+] (centres unmarked) [C16ESOCOONa],100 µM,10 ppm as CaCO3,–,–
–,–,–,–,–,–,11 s,"CCCCCCCCCCCCOS(=O)(=O)[O-].[Na+] [SDS, sodium dodecyl sulfate]",–,–,2.6^d,CMC ([7]; literature value (footnote d)): 12.4^d mM; pC20 ([7]; literature value (footnote d)): 2.36^d; ΥCMC (surface tension at CMC) ([7]; literature value (footnote d)): 40^d mN/m; CaCl2 Tolerance [9]: 40^c μM; Hardness Tolerance [9]: 4^c ppm as CaCO3
–,3.1 mM,5.30,3.24,34 mN/m,–,–,"sodium dodecylbenzene sulfonate [SDBS, reference compound]",–,–,–,Water Solubility [10]: 575^a mM

Molecule,Water Solubility [1],CMC [4],CMC/C20 [4],pC20 [4],ΥCMC (surface tension at CMC) [4],Precipitation of 1 wt % solution in 4° C. water bath [5],Draves wetting time of 0.1 wt % solution [6],CaCl2 Tolerance [2],Hardness Tolerance [2],CMC/C20 [7],also measured
"CCCCCCCCCCCC(=O)[O-].[Na+] [NaL, sodium laurate, reference compound]",–,19.1 mM,–,3.32,30 mN/m,–,52 s,0.5 µM,0.05 ppm as CaCO3,38.5^b,solubility ([1]; thermodynamic from solid): 90 mM; Krafft Point [8]: 13^a ° C.
